Experimental data from patent US20060018921A1, “Histone deacetylase inhibitors and cognitive applications” (priority 2004, published 2006).
Entries after “also recorded” stand apart in the source; their conditions may differ.

What was measured:
[1] = test system: Schaffer-collateral synapses; experiment: Slice electrophysiology, basal synaptic transmission (baseline fEPSP, input/output, paired-pulse facilitation, tetanus depolarization); assay type: cell-based, Sprague-Dawley rats
[2] = test system: NMDA-Rs; experiment: NMDA-R mediated synaptic transmission in slices with CNQX; assay type: cell-based, Sprague-Dawley rats; settings: TSA 1.65 μM over 3 h; CNQX 20 μM, ACSF with 4 mM CaCl2 and no MgCl2
Description: In FIG. 8A, slices were exposed to the AMPA-R antagonist CNQX (20 μM) and perfused with an ACSF containing 4 mM CaCl2 and no MgCl2. The resulting field potentials represent NMDA-R mediated synaptic transmission (English and Sweatt, 1997). […] Representative traces immediately before (dashed) and 186 min after (solid) introduction of TSA are shown. Calibration bar indicates 5 msec and 1 mV. In FIG. 8B, slices were exposed to both TSA (1.65 μM) and the NMDA-R antagonist AP5 (50 μM) 20 min prior to LTP induction. After induction of LTP, the AP5 was washed out but slices were still exposed to TSA. Induction of LTP in the presence of TSA was blocked by AP5 (n=8, F[89,612]=0.5, p<1). […] In FIG. 8C, depolarization was measured during a 100 Hz tetanus in slices treated with either vehicle (0.05% EtOH, n=10) or TSA (1.65 μM, n=10) for 20 min. […]
In another series of studies, the present inventors investigated the possibility that TSA was affecting properties of NMDA-Rs. To directly measure any long-term affects of TSA on NMDA-Rs, field potentials were recorded in the presence of the AMPA-R antagonist CNQX to isolate the NMDA-R-dependent component of synaptic transmission. […] To further explore the potential affects of TSA on synaptic transmission, we measured the depolarization that occurs during the 100 Hz tetanus used to induce LTP.

[3] = test system: animals deficient in CBP; settings: infusion directly into the brain of animals deficient in CBP; Korzus et al., Alarcon et al. (2004); cited from earlier work
[4] = test system: ras transformed cells; settings: Taunton et al., 1996; cited from earlier work
[5] = mouse model; Takahashi et al., 1996; cited from earlier work
[6] = test system: ERK2; experiment: P-ERK2 western blot, acute hippocampal slices, area CA1; settings: slices treated 1 h; PDA 3 μM, FSK 50 μM with 100 μM Ro20-1724, U0126 20 μM, PD98059 50 μM, 4αP 3 μM, dFSK 50 μM with 100 μM Ro20-1724, TSA
[7] = test system: histone H3 (Lys14); experiment: Acetylation of histone H3, acute hippocampal slices, area CA1; settings: slices treated 1 h; PDA 3 μM, FSK 50 μM with 100 μM Ro20-1724, 4αP 3 μM, dFSK 50 μM with 100 μM Ro20-1724, U0126 20 μM, PD98059 50 μM, TSA 1.65 μM
[8] = test system: histone H4 (Lys5/Lys8/Lys12/Lys16); experiment: Acetylation of histone H4, acute hippocampal slices, area CA1; settings: slices treated 1 h; TSA 1.65 μM

## CC(/C=C/C(=O)NO)=C\[C@@H](C)C(=O)c1ccc(N(C)C)cc1 [TSA, trichostatin A]
[1]; 20 min and 3 h after application, data not shown
  input/output relationships and PPF, slices treated with DRB vs DRB and TSA: no significant differences in basal synaptic transmission
[1]; TSA 1.65 μM for 20 min vs vehicle 0.05% EtOH
  depolarization during 100 Hz tetanus, area under the curve: No significant difference in area under the curve
[1]; TSA for 20 min vs vehicle
  input/output relationships: no significant effect; also recorded: No significant differences
  paired-pulse facilitation: no significant effect; also recorded: unaffected
[1]; TSA for 3 h vs vehicle
  input/output relationships: no significant effect; also recorded: No significant differences
  paired-pulse facilitation: no significant effect; also recorded: unaffected
[1]; continuous TSA, up to 3 h after start of treatment
  baseline synaptic efficacy where LTP was not induced: no effect on synaptic transmission in the absence of high-frequency stimulation; also recorded: no effect on baseline synaptic efficacy
[2]
  NMDA-R mediated synaptic transmission: unaffected; also recorded: no short or long-term effects
[3]
  performance in long-term memory tasks: improved the animals' performance in some long-term memory tasks
[4]
  hyperacetylation: induce hyperacetylation
  morphology of ras transformed cells: cause reversion of ras transformed cells to normal morphology
[5]
  immunosuppression: induces immunosuppression in a mouse model
[6]
  levels of P-ERK2: without affecting levels of P-ERK2; also recorded: no effect on P-ERK2
[7]
  histone H3 acetylation: significantly increased acetylation of H3; also recorded: increased acetylation of histone H3
[8]
  histone H4 acetylation: increased the acetylation of histone H4; also recorded: significant effect on H4 acetylation
